This is an account of results in patent publication US20090143392A1, “Methods of Treating Obesity and Metabolic Disorders” (ELBION GMBH, priority 2007, published 2009).

One assay has as its target T1, PDE10 from pig striatum (Sus scrofa, UniProt A0A287B941).
T1 construct: "Striatum from male hybrid pigs (150 kg)"
Description: Inhibition of PDE10 from pig striatum. It is filed as biochemical. The conditions noted are these: 0.1 μM [3H]-cAMP, 37° C., 30 minutes. As to the method: Phosphodiesterase isoenzyme 10 (PDE10) activity was determined in preparations of human recombinant PDE10A and PDE10 from pig striatum, respectively.
Striatum from male hybrid pigs (150 kg) were collected and frozen at −70° C.
At the day of preparation 0.5 g striatum was homogenised in 10 ml 50 mM Tris/Mg-buffer at 4° C. and centrifuged for one hour at 100000 g.
(§1) Nonspecific activity was tested without the enzyme. […] For determination of IC50 values the Hill-plot, 2-parameter-model, was used.
(§2) Phosphodiesterase isoenzyme 10 (PDE10) activity was determined in preparations of rat, pig and guinea pig striatum respectively. Striatum from male Wistar rats (180-200 g), male hybrid pigs (150 kg) and male guinea pigs (CRL (HA), 500 g) respectively were collected and frozen at −70° C.
(§3) For the enzymatic testing of PDE10 activity 0.5 g of the isolated and frozen striatum was homogenised in 10 ml 50 mM Tris/Mg-buffer at 4° C. and centrifuged for one hour at 100000 g.

Assay [1] has as its target PDE10 from guinea pig striatum (Cavia porcellus, UniProt A0A286XN47). In words: Inhibition of PDE10 from guinea pig striatum. It is filed as biochemical. The conditions noted are these: 0.1 μM [3H]-cAMP, 37° C., 30 minutes. As to the method:
as §2, §3, §1

A further assay relates to MK-801-induced psychosis. In words: MK-801-induced psychosis: hyperactivity and stereotyped sniffing. The class given is in vivo. The settings on record: p.o.; female Wistar rats; MK-801 0.1 mg/kg i.p. 10 min before test; compound 30 min prior; recorded 1 h. As to the method:
Female Wistar rats (Crl: (WI) BR, Charles River, Sulzfeld, Germany) weighing 150 to 180 g were used for the MK-801-induced psychosis. Animals were housed under standard conditions in groups of five on a 12 h light/dark cycle (light on at 0600 h) with ad libitum access to food (Pellets, ssniff M/R 15, Spezialdiät GmbH, Soest/Westfalen) and water.
MK-801 (dizocilpine, MW 337.37) was obtained by Tocris, distributed by Biotrend Chemikalien GmbH, Köln, Germany.
Hydroxyethylcellulose was solved in distilled water.
MK-801 was solved in saline so that an administration volume of 0.5 ml/100 g was reached. The suspensions and solution were placed on a magnetic stirrer before and during dosing procedures.
The behaviour induced by the NMDA antagonist MK-801 is generally accepted as a rat model of psychosis. MK-801 induces stereotyped sniffing, hyperactivity and ataxia in rats after intraperitoneal administration.
Locomotor activity of the rats was recorded by the MotiTest Apparatus (TSE, Bad Homburg, Germany). The test area consisted of a squared arena (45×45 cm) with protective plexiglass walls (20 cm of height) where rats could freely move. Horizontal movements were recorded by 32 infrared photocells arranged along the bottom of each wall of the arena. The activity [sec] was measured by the computer program “ActiMot” (TSE, Bad Homburg, Germany).
Stereotyped sniffing was scored by the experimenter every five minutes for one hour (12 intervals) according to the method described by Andine et al. (1999). The scores of the 12 intervals were summed up at the end of the recording time.
The day of experiment the female rats were placed in the laboratory and received the test compound or vehicle at the appropriate time prior to test. MK-801 0.1 mg/kg was intraperitoneally administered 10 minutes prior to test.
At the beginning of the test the rats were placed in the centre of the squared arena of the MotiTest apparatus. Behaviour of the rats was recorded for one hour. After each run animals were removed and the boxes thoroughly cleaned and dried.
Results were analysed by one way analysis of variance (ANOVA). Tukey test was used for individual comparison. P<0.05 was regarded as significant.

The next assay deals with T2, PDE10 from rat striatum (Rattus norvegicus, UniProt Q9QYJ6).
T2 construct: 0.5 g of the isolated and frozen striatum was homogenised; from tissue; host or cells: rat striatum, ion-exchange FPLC fractions with PDE10 activity
T2 sequence (Q9QYJ6 1-794): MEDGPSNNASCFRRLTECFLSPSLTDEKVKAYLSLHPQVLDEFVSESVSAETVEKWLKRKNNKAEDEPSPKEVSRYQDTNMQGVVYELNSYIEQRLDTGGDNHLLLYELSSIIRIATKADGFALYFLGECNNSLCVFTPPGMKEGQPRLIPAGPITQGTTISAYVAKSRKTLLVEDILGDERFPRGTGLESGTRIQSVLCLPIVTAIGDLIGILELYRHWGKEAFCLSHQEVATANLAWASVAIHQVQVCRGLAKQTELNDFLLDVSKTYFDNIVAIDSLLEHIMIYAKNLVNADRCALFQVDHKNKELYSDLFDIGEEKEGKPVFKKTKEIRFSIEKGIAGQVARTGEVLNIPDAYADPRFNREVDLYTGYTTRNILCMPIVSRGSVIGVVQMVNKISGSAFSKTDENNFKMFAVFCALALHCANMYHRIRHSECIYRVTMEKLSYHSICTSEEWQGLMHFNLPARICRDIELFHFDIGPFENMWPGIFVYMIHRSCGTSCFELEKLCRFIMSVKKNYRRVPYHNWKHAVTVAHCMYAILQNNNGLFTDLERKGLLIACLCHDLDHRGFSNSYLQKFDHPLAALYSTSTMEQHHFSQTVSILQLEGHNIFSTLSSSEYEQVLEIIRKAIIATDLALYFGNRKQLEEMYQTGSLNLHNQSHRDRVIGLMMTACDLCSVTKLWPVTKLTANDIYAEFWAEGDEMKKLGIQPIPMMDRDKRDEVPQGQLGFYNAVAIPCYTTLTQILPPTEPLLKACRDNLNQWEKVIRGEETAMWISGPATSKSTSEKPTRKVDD
Description: Inhibition of PDE10 from rat striatum. The conditions noted are these: 0.1 μM [3H]-cAMP, 37° C., 30 minutes. The class given is biochemical. As to the method:
as §2, §3, §1

Assay [2] deals with apomorphine-induced stereotypies. The settings on record: rats; cited from earlier work.
For assay [3], the system named is haloperidol-induced catalepsy. The settings on record: rats; cited from earlier work.
In assay [4] the test system is dopamine concentration in rat brain. The conditions noted are these: cited from earlier work.

A word on the IC50: it is the concentration needed to halve the response being measured. Lower therefore signals higher potency.

PDE10 from guinea pig striatum, sequence (A0A286XN47 1-773): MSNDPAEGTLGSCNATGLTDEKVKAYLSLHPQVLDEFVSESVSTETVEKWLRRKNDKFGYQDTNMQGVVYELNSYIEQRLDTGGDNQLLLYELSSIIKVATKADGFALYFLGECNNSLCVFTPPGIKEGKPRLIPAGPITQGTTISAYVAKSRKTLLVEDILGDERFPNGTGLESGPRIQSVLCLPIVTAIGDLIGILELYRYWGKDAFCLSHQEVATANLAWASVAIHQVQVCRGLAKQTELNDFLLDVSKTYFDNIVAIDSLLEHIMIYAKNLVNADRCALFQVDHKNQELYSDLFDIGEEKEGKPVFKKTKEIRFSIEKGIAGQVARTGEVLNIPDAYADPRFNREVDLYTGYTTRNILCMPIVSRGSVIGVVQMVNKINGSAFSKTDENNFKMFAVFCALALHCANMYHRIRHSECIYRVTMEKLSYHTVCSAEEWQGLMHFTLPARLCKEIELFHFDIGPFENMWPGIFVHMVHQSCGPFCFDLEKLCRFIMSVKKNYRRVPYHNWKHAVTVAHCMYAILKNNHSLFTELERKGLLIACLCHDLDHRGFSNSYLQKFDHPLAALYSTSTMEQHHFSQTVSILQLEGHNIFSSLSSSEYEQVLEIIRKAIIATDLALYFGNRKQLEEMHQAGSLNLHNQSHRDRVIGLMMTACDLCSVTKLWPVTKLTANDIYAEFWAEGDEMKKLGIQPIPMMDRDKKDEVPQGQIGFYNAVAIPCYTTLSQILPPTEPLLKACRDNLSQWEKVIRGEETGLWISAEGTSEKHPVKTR

As to “4-cyano-8-methoxy-3-methyl-1-ethyl-imidazo[1,5-a]pyrido[3,2-e]pyrazine [Example 30a]”, on PDE10 from pig striatum, the IC50 worked out at 20 nM. The same compound returned an IC50 in assay [1] of 51 nM. Besides, in the assay with MK-801-induced psychosis, the “dose that significantly reversed MK-801-induced hyperactivity” value is ≥ 10 mg/kg and the “dose that significantly reversed MK-801-induced stereotyped sniffing” value is ≥ 10 mg/kg.

As for “8-methoxy-3-methyl-4-methylsulfonylamino-1-propyl-imidazo[1,5-a]pyrido[3,2-e]pyrazine [Example 69a]”, the IC50 on PDE10 from rat striatum amounted to 11 nM; on PDE10 from pig striatum it was 5 nM; in assay [1] it was 11 nM.

“8-methoxy-4-methoxycarbonylamino-3-methyl-1-propyl-imidazo[1,5-a]pyrido[3,2-e]pyrazine [Example 62a]”: the IC50 against PDE10 from rat striatum was 35 nM; at PDE10 from pig striatum, 6 nM; in assay [1] it was 26 nM. Moreover, the “dose that significantly reversed MK-801-induced hyperactivity” value in the assay with MK-801-induced psychosis came out at 5 mg/kg. Besides, the “dose that significantly reversed MK-801-induced stereotyped sniffing” value in the assay on MK-801-induced psychosis is given as 5 mg/kg.

`COc1ccc(Cc2nccc3cc(OC)c(OC)cc23)cc1OC` [Papaverine]: the “effect on apomorphine-induced stereotypies” value in assay [2] is “reduces apomorphine-induced stereotypies”. The “effect on haloperidol-induced catalepsy” value in assay [3] is reported as “increases haloperidol-induced catalepsy”. Further, the “effect on dopamine concentration in rat brain” value in assay [4] is reported as “reducing dopamine concentration in rat brain”.
